Experimental data reported in US6613322B2, “Method for treating a subject suffering from conditions associated with an extracellular zinc sphingomyelinase” (The Trustees of Columbia University in the City of New York, priority 1997, dated 2003).

Test system: S-SMase of HUVECs
Test: Immunoblot of S-SMase from conditioned medium of HUVECs
Assay type: cell-based, human
Conditions: conditioned medium of IL-1β-treated HUVECs
Experimental: FIG. 26. Immunoblot analysis of L- and S-SMase from control and IL-1β-treated HUVECs. HUVECs were incubated for 18 h in DMEM, 0.2% BSA alone (Con) or containing human recombinant interleukin-1β (5 ng/ml) (IL1β). SMase was partially purified from the cell homogenates and conditioned media of these cells, and then aliquots derived from equivalent numbers of cells were subjected to immunoblot analysis. Specifically, conditioned medium from control and IL-1(-treated cells yielded 256.0 and 262.5 μg of concanavalin A eluate protein, of which 60.8 μg and 60.0 μg aliquots were loaded onto the SDS-PAGGE gel, respectively. Cell homogenates from control and IL-1β-treated cells yielded 168.1 and 160.6 μg of DEAE flow-through protein, of which 59.5 μg and 60.0 μg aliquots were loaded onto the SDS-PAGGE gel, respectively. No band at the molecular weight of L-SMase was visible in conditioned media (right-hand panels), even when overexposed.
Partial Purification of L- and S-SMase from HUVECs—A modification of previously published procedures (39) was used. Cells were scraped in ice-cold 40 mM Tris-HCl, 0.1 mM ZnCl2, 0.1% NP-40, pH 7.2 (Buffer A), disrupted by sonication on ice using three 5-second bursts (Branson 450 Sonifier) and centrifuged at 100,000×g for one hour. […]

increase of higher-Mr S-SMase by densitometry of immunoblot: approximately two-fold
Substance: IL-1β: human recombinant interleukin-1β
